Data as given in US7803949B2, “Process for preparation of water-soluble azole prodrugs” (Eisai R&D Management Co., Ltd., priority 2005, dated 2010).
Counter-ions that a name gives are not always drawn.

Test: hygroscopicity by the micro balance method (Gravimetric Vapour Sorption System DVS-1)
Type: physicochemical
Settings: FIG. 2 (A); temperature 25.1° C.
Excerpt: Next, it will be illustrated that although Compound (IV) prepared according to the present invention is a mono lysine salt, it has excellent […] in a comparison with a dilysine salt. Note that, a dilysine salt can be prepared by the methods disclosed in Published Japanese Translation of a PCT Application No. 2003-520235. […] Note that, the measurement instrument used in the micro balance method was the following apparatus:
Gravimetric Vapour Sorption System (Model DVS-1 Surface Measurement System).

Structure (SMILES): C[C@@H](c1nc(-c2ccc(C#N)cc2)cs1)[C@@](Cn1cncn1)(OCOP(=O)(O)O)c1ccc(F)cc1F [mono lysine salt]
- relative humidity at which moisture absorption phenomenon was observed: 70 % RH
